Results taken from patent US20130189773A1, “PRODUCTION OF HYPOTHIOCYANITE FROM HALOGENATED CELLS” (priority 2012, published 2013).
Blank lines part the entries; values can stand above or below the molecule they belong to.

How the values were obtained:
A549 cells [1] = test: flow cytometry of percent live, necrotic and apoptotic A549 cells; type: cell-based, human
Procedure: A549 cells were untreated (A), treated with 50 μM HOCl (B), treated with 50 μM SCN^− followed by treatment with 50 μM HOCl, (C), or treated with 50 μM HOCl followed by treatment 30 minutes later with 50 μM SCN^− (D).
Using the same protocol that was used to investigate the reaction of intracellular chloramines with SCN^− (FIG. 3), flow cytometry was employed to investigate the percent of live, necrotic, and apoptotic cells (FIG. 4).

A549 cells [2] = test: fluorescent probe detection of HOCl-produced intracellular chloramines in A549 cells; type: cell-based, human
Procedure: In each experiment, A549 cells were incubated with 50 μM HOCl in RPMI culture medium for 20 min at 37° C. and washed with the medium to remove residual HOCl; the cells were then incubated for an additional 20 minutes at 37° C. with 50 μM SCN^− and washed again with the medium. FIG. 3D illustrates the structure of the rhodamine-hydroxymic acid-based probe utilized in FIGS. 3A-C.

GSH reductase (GOR) = target: T1, GSH reductase (GOR) (Homo sapiens, UniProt P00390); test: inhibition of GSH reductase (GOR) by HOCl and repair by SCN^− (GOR-catalyzed reduction of GSSG by NADPH, kinetic traces at 340 nm); type: biochemical
T1 sequence (P00390 45-522 limits assumed): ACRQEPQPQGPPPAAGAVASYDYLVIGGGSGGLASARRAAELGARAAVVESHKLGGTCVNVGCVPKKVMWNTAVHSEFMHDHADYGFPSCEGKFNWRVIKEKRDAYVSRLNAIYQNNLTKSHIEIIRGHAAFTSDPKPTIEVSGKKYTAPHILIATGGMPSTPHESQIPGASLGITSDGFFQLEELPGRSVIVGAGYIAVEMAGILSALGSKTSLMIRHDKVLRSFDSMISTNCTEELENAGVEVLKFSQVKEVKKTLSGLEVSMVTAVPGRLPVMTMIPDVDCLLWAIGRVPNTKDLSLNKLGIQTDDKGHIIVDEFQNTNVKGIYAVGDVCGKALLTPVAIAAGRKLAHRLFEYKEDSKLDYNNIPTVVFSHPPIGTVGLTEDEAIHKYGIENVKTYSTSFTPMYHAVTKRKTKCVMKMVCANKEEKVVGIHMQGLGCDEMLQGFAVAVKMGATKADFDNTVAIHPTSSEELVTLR
Procedure: FIG. 2 contains kinetic traces at 340 nm depicting the GOR-catalyzed reduction of GSSG by NADPH. Conditions: (Control) [GSSG]o=1 mM, [NADPH]o=0.1 mM, [GOR]=0.025 U/mL, [iP]=0.1 M, pH 7.4 and T=25° C.; (SCN^- treated) GOR incubated with 40 μM HOCl for 20 minutes and then treated with 160 μM SCN^- for another 20 minutes. (HOCl modified) GOR incubated with 40 μM HOCl for 20 minutes and then treated with iP for an additional 20 minutes. […] Glutathione (GSH) is a major non-protein thiol in cells (up to mM concentrations have been reported in some cells). One of the cellular functions of GSH is to serve as an antioxidant, and thus GSH is essential for cell survival, especially during conditions of oxidative stress. Many of the important residues in the active site of GOR, including two cysteines ([…]) and tyrosine ([…]), are susceptible to HOCl attack. Oxidation of these residues results in the inhibition of enzyme activity.

SMILES: N#CS [SCN^−, thiocyanate]
recovery of HOCl-damaged cells (A549 cells [1]; 50 μM SCN^− added within 30 minutes after 50 μM HOCl (FIG. 4D)): the cells were resuscitated
protection of cells from HOCl (A549 cells [1]; 50 μM SCN^− present before 50 μM HOCl was added (FIG. 4C)): efficient scavenger of HOCl
recovery of HOCl-damaged cells (A549 cells [1]; interval for addition of SCN^− after HOCl 1 hour or more (data not shown)): recovery was not observed
fluorescence with probe compound (1) (intracellular chloramines) (A549 cells [2]; A549 cells treated with 50 μM HOCl and subsequently with 50 μM SCN^− 20 minutes (FIG. 3C)): do not fluoresce
fluorescence with probe compound (1) (intracellular chloramines) (A549 cells [2]; A549 cells treated with HOCl in the presence of SCN^− (data not shown)): did not fluoresce
enzyme activity recovered (GSH reductase (GOR); HOCl-modified GOR (40 μM HOCl, 20 minutes) subsequently treated with 160 μM SCN^− for 20 minutes): ~89%

loss of enzyme activity (GSH reductase (GOR); GOR ~1.3 nM treated with 40 μM HOCl for 20 minutes, loss within 13 minutes, pH 7.4, 25° C.): ~82%
SMILES: OCl [HOCl, hypochlorous acid, reference compound]
cell killing (A549 cells [1]; 50 μM HOCl (FIG. 4B)): kill roughly half of the cells
apoptotic cells (A549 cells [1]; under the conditions of these experiments (50 μM HOCl with or without 50 μM SCN^−)): essentially no apoptotic cells were observed
fluorescence with probe compound (1) (intracellular chloramines) (A549 cells [2]; A549 cells treated with 50 μM HOCl 20 min 37° C., then probe (FIG. 3B)): fluoresced
